Measurements taken from patent publication US20070015232A1, “Mitotic index assay” (DiscoveRx, Inc., priority 2005, published 2007).

Experiments:
[1] = system: CHO-K1+EA-NLS/NRS+GR-PL cells; test: EFC mitotic index assay, CHO-K1+EA-NLS/NRS+GR-PL cells, antibiotic selected pool (DX M19/GR pool); format: cell-based; conditions: for Avg luminescence readout / R1 luminescence readout / R3 luminescence readout / Ratio (Avg vs 0 conc): 24 hours, 30 min read; for increase in EFC activity (in words): overnight treatment
Protocol: (§1) In all experiments described, 20,000 cells/well were plated in a 96 well Corning clear bottom white plate in a total volume of 100 μL. The cells were treated for 24 hours with 5 μL of either the appropriate vehicle control or varying concentrations of the six compounds listed above. The next day, 100 μL of Tropix/ABI Gal screen cell lysis buffer/substrate mixture (24:1 ratio of component) was added to the cells/media and the plate was read on the Victor II luminescent plate reader at 30, 60 and 120 minutes after the lysis/substrate addition.
(§2) The initial test of the cell cycle arresting compounds was performed on a double stable cell line having both of the constructs expressing the EA-NLS/NRS and GR-PL. (PL is β-galactosidase enzyme donor fragment and EA is the enzyme acceptor fragment available from DiscoveRx, Fremont, CA.). The parental line, C2C12 is derived from mouse muscle cells. In the experiments in which EA-NLS/NRS and GR-PL are expressed in the C2C12 parental cell line, the constructs were generated by subcloning the human GR sequence into a MFG-based retroviral vector that had been molecularly altered in a lab at Stanford. An MFG vector is described in U.S. Pat. No. 6,544,771. The EA-NLS/NRS fragment was subcloned into a wzl-based retroviral vector again molecularly altered in a lab at Stanford. In the experiments performed using a CHO-K1 parental cell line background the EA-NLS/NRS was subcloned into the Kpn I and Xba I sites of pcDNA3.1 Hygro vector from Invitrogen (catalog #V870-20). The plasmid was introduced into the cells via FuGene6 (Roche) transfection reagent. Cells were selected in the presence of 250 μg/mL of Hygromycin and single cell clones isolated that expressed the EA-NLS/NRS. The human GR gene was cloned by PCR and subcloned into the Xho I and Bam HI sites of the DiscoveRx vector-pCMV-myc-PL (C3). The plasmid was introduced into the selected EA-NLS/NRS expressing clone isolated above by FuGene 6 transfection. Another round of screening in the presence of 300-500 μg/mL of G418 was used to select GR-PL transfected clones. Clonal selection was performed to finally identify the clone that was used in these studies. In the studies using the CHO-K1+cyto-EA and cJUN-PL, the same Invitrogen pcDNA3.1 Hygro vector was used to express EA. In this case, the EA fragment was subcloned into the Kpn I/Not I sites of pcDNA3.1 Hygro. The plasmid DNA was introduced as described above using FuGene6 reagent. Cells were selected in the presence of 250 μg/mL of hygromycin and clonal selection was performed. The c-Jun gene was generated by PCR using an existing template copy of the gene and then subcloned into the Xho I/Bam HI sites of pCMV-PL-myc (C3).
In the next experiment, an antibiotic selected pool population of CHO-K1 cells that express EA-NLS/NRS and GR-PL were tested with the same six set of cell cycle blocking compounds. […] FIGS. 2a and 2b show the immunofluorescence localization of EA and GR-PL in that the blue DAPI nuclear staining can be seen to be concentrated in the nucleus, while the green fluorescein stain on the antibody (from Abcam PLC) to the glucocorticoid receptor is seen in the cytoplasm. […] Again, six tables are presented one for each of the six drugs tested.
This only occurs with compounds that block the cells in mitosis, allowing EA and ProLabel to complement.

[2] = system: CHO-K1+cyto-EA cells transfected with cJUN-PL; test: EFC mitotic index assay, CHO-K1+cyto-EA cells transiently transfected with cJUN-PL; format: cell-based; conditions: for Avg luminescence readout / R1 luminescence readout / R3 luminescence readout / Ratio (Avg vs 0 conc): overnight; for increase in EFC activity (in words): overnight incubation
Protocol: as §2
To further test the concept of sequestering of one β-galactosidase enzyme fragment in the nucleus (in this case PL) while localizing the other component in the cytoplasm (in this case EA) the following experiment was carried out. […] The cyto-EA cells were transiently transfected with cJUN-PL plasmid DNA. Two days after the transfection, the cells were re-plated into a 96 well Corning white clear bottom multiwell plate at 20,000 cells/well. The cells were allowed to adhere overnight and the next day were treated with titrating concentrations of the six different cell cycle blocking compounds. The incubation was carried out overnight. The next day the media was removed from the cells and 100 μL of Tropix/ABI Gal screen cell lysis/substrate reagent was added to the cells.

[3] = system: C2C12+EA-NLS/NRS+GR-PL cells; test: EFC mitotic index assay, C2C12+EA-NLS/NRS+GR-PL cells (Stanford GR cells); format: cell-based, mouse; conditions: 24 hours, 30 min read
Protocol: as §1, §2

Compound: C[C@@]1(CO)[C@H](O)CC[C@@]2(C)[C@H]1CC[C@H]1C[C@@H]3C[C@@]12CC[C@]3(O)CO [Aphidicolin, aphidicolin]
- Avg luminescence readout ([1]; 0.3 μM): 5508
- R1 luminescence readout ([1]; 0.3 μM): 5478
- R3 luminescence readout ([1]; 0.3 μM): 5469
- Ratio (Avg vs 0 conc) ([1]; 0.3 μM): 1
- Avg luminescence readout ([1]; 1 μM): 5604
- R1 luminescence readout ([1]; 1 μM): 5656
- R3 luminescence readout ([1]; 1 μM): 5491
- Ratio (Avg vs 0 conc) ([1]; 1 μM): 1
- Avg luminescence readout ([1]; 3.3 μM): 4561
- R1 luminescence readout ([1]; 3.3 μM): 4392
- R3 luminescence readout ([1]; 3.3 μM): 4749
- Ratio (Avg vs 0 conc) ([1]; 3.3 μM): 0
- Avg luminescence readout ([1]; 10.0 μM): 6941
- R1 luminescence readout ([1]; 10.0 μM): 7213
- R3 luminescence readout ([1]; 10.0 μM): 6651
- Ratio (Avg vs 0 conc) ([1]; 10.0 μM): 1
- increase in EFC activity (in words) [1]: did not cause an increase in EFC activity
- Avg luminescence readout ([2]; 1.5 μg/mL): 7545
- R1 luminescence readout ([2]; 1.5 μg/mL): 7218
- R3 luminescence readout ([2]; 1.5 μg/mL): 7576
- Ratio (Avg vs 0 conc) ([2]; 1.5 μg/mL): 0.9
- Avg luminescence readout ([2]; 4.4 μg/mL): 9193
- R1 luminescence readout ([2]; 4.4 μg/mL): 9492
- R3 luminescence readout ([2]; 4.4 μg/mL): 9245
- Ratio (Avg vs 0 conc) ([2]; 4.4 μg/mL): 1.1
- Avg luminescence readout ([2]; 13.3 μg/mL): 7027
- R1 luminescence readout ([2]; 13.3 μg/mL): 6677
- R3 luminescence readout ([2]; 13.3 μg/mL): 7784
- Ratio (Avg vs 0 conc) ([2]; 13.3 μg/mL): 0.8
- Avg luminescence readout ([2]; 40.0 μg/mL): 9131
- R1 luminescence readout ([2]; 40.0 μg/mL): 8645
- R3 luminescence readout ([2]; 40.0 μg/mL): 9818
- Ratio (Avg vs 0 conc) ([2]; 40.0 μg/mL): 1.0
- increase in EFC activity (in words) [2]: negligible increase in EFC activity
- Avg luminescence readout ([3]; 0.3 μM): 3444
- R1 luminescence readout ([3]; 0.3 μM): 3081
- R3 luminescence readout ([3]; 0.3 μM): 3500
- Ratio (Avg vs 0 conc) ([3]; 0.3 μM): 1
- Avg luminescence readout ([3]; 1 μM): 3307
- R1 luminescence readout ([3]; 1 μM): 3250
- R3 luminescence readout ([3]; 1 μM): 3388
- Ratio (Avg vs 0 conc) ([3]; 1 μM): 1
- Avg luminescence readout ([3]; 3.3 μM): 3132
- R1 luminescence readout ([3]; 3.3 μM): 3171
- R3 luminescence readout ([3]; 3.3 μM): 3105
- Ratio (Avg vs 0 conc) ([3]; 3.3 μM): 1
- Avg luminescence readout ([3]; 10.0 μM): 3413
- R1 luminescence readout ([3]; 10.0 μM): 2827
- R3 luminescence readout ([3]; 10.0 μM): 3765
- Ratio (Avg vs 0 conc) ([3]; 10.0 μM): 1

Compound: NC(=O)NO [Hydroxyurea]
- Avg luminescence readout ([1]; 1.0 μg/mL): 4562
- R1 luminescence readout ([1]; 1.0 μg/mL): 4403
- R3 luminescence readout ([1]; 1.0 μg/mL): 4740
- Ratio (Avg vs 0 conc) ([1]; 1.0 μg/mL): 1
- Avg luminescence readout ([1]; 3.3 μg/mL): 4389
- R1 luminescence readout ([1]; 3.3 μg/mL): 4423
- R3 luminescence readout ([1]; 3.3 μg/mL): 4304
- Ratio (Avg vs 0 conc) ([1]; 3.3 μg/mL): 1
- Avg luminescence readout ([1]; 10.0 μg/mL): 3959
- R1 luminescence readout ([1]; 10.0 μg/mL): 3865
- R3 luminescence readout ([1]; 10.0 μg/mL): 3897
- Ratio (Avg vs 0 conc) ([1]; 10.0 μg/mL): 1
- Avg luminescence readout ([1]; 30.0 μg/mL): 3793
- R1 luminescence readout ([1]; 30.0 μg/mL): 3825
- R3 luminescence readout ([1]; 30.0 μg/mL): 3785
- Ratio (Avg vs 0 conc) ([1]; 30.0 μg/mL): 1
- increase in EFC activity (in words) [1]: did not cause an increase in EFC activity
- Avg luminescence readout ([2]; 3.0 μg/mL): 7420
- R1 luminescence readout ([2]; 3.0 μg/mL): 7319
- R3 luminescence readout ([2]; 3.0 μg/mL): 6690
- Ratio (Avg vs 0 conc) ([2]; 3.0 μg/mL): 1.2
- Avg luminescence readout ([2]; 10.0 μg/mL): 7634
- R1 luminescence readout ([2]; 10.0 μg/mL): 8237
- R3 luminescence readout ([2]; 10.0 μg/mL): 6699
- Ratio (Avg vs 0 conc) ([2]; 10.0 μg/mL): 1.3
- Avg luminescence readout ([2]; 30.0 μg/mL): 6984
- R1 luminescence readout ([2]; 30.0 μg/mL): 7217
- R3 luminescence readout ([2]; 30.0 μg/mL): 6624
- Ratio (Avg vs 0 conc) ([2]; 30.0 μg/mL): 1.2
- Avg luminescence readout ([2]; 100.0 μg/mL): 7742
- R1 luminescence readout ([2]; 100.0 μg/mL): 7955
- R3 luminescence readout ([2]; 100.0 μg/mL): 7483
- Ratio (Avg vs 0 conc) ([2]; 100.0 μg/mL): 1.3
- increase in EFC activity (in words) [2]: negligible increase in EFC activity
- Avg luminescence readout ([3]; 1.0 μg/mL): 11689
- R1 luminescence readout ([3]; 1.0 μg/mL): 12080
- R3 luminescence readout ([3]; 1.0 μg/mL): 11424
- Ratio (Avg vs 0 conc) ([3]; 1.0 μg/mL): 1
- Avg luminescence readout ([3]; 3.3 μg/mL): 11522
- R1 luminescence readout ([3]; 3.3 μg/mL): 12588
- R3 luminescence readout ([3]; 3.3 μg/mL): 11171
- Ratio (Avg vs 0 conc) ([3]; 3.3 μg/mL): 1
- Avg luminescence readout ([3]; 10.0 μg/mL): 9211
- R1 luminescence readout ([3]; 10.0 μg/mL): 8813
- R3 luminescence readout ([3]; 10.0 μg/mL): 9419
- Ratio (Avg vs 0 conc) ([3]; 10.0 μg/mL): 1
- Avg luminescence readout ([3]; 30.0 μg/mL): 7221
- R1 luminescence readout ([3]; 30.0 μg/mL): 7272
- R3 luminescence readout ([3]; 30.0 μg/mL): 7165
- Ratio (Avg vs 0 conc) ([3]; 30.0 μg/mL): 1
